Results: the NIST ThermoML archive (doi:10.1021/je301164d)

Conditions: Fluid (supercritical or subcritical phases)

CC(F)(F)CC(F)(F)F [1,1,1,3,3-pentafluorobutane]
Conditions | speed of sound [m/s]
250 K, 1105.2 kPa | 921.65
250 K, 2105.8 kPa | 926.73
250 K, 3106.3 kPa | 931.74
250 K, 4106.9 kPa | 936.7
250 K, 5107.4 kPa | 941.59
250 K, 6108.3 kPa | 946.43
250 K, 7108.9 kPa | 951.22
250 K, 8108.1 kPa | 955.95
250 K, 9108.8 kPa | 960.64
250 K, 10110 kPa | 965.28
250 K, 12611 kPa | 976.67
250 K, 15113 kPa | 987.78
250 K, 17614 kPa | 998.62
250 K, 20116 kPa | 1009.2
250 K, 25120 kPa | 1029.8
250 K, 30123 kPa | 1049.5
250 K, 35127 kPa | 1068.4
250 K, 40130 kPa | 1086.7
250 K, 45133 kPa | 1104.4
250 K, 50137 kPa | 1121.5
260 K, 1104.3 kPa | 881.57
260 K, 2104.8 kPa | 886.96
260 K, 3105.3 kPa | 892.27
260 K, 4105.9 kPa | 897.52
260 K, 5106.3 kPa | 902.7
260 K, 6107.9 kPa | 907.82
260 K, 7109.2 kPa | 912.89
260 K, 8109.9 kPa | 917.88
260 K, 9110.7 kPa | 922.82
260 K, 10112 kPa | 927.71
260 K, 12613 kPa | 939.68
260 K, 15115 kPa | 951.34
260 K, 17617 kPa | 962.7
260 K, 20118 kPa | 973.79
260 K, 25122 kPa | 995.21
260 K, 30126 kPa | 1015.7
260 K, 35129 kPa | 1035.4
260 K, 40133 kPa | 1054.3
260 K, 45136 kPa | 1072.6
260 K, 50140 kPa | 1090.3
260 K, 60146 kPa | 1124.1
260 K, 70153 kPa | 1155.9
260 K, 80160 kPa | 1186.1
260 K, 90167 kPa | 1214.9
260 K, 100174 kPa | 1242.4
280 K, 1104.4 kPa | 803.31
280 K, 2104.9 kPa | 809.41
280 K, 3105.4 kPa | 815.42
280 K, 4106 kPa | 821.34
280 K, 5106.6 kPa | 827.16
280 K, 6107.8 kPa | 832.89
280 K, 7108.5 kPa | 838.55
280 K, 8109.3 kPa | 844.12
280 K, 9110.2 kPa | 849.62
280 K, 10111 kPa | 855.04
280 K, 12613 kPa | 868.29
280 K, 15114 kPa | 881.13
280 K, 17616 kPa | 893.6
280 K, 20118 kPa | 905.71
280 K, 25121 kPa | 929
280 K, 30124 kPa | 951.17
280 K, 35128 kPa | 972.34
280 K, 40131 kPa | 992.62
280 K, 45135 kPa | 1012.1
280 K, 50138 kPa | 1030.9
280 K, 60145 kPa | 1066.6
280 K, 70152 kPa | 1100.2
280 K, 80159 kPa | 1131.9
280 K, 90166 kPa | 1162
280 K, 100172 kPa | 1190.6
300 K, 1104.5 kPa | 727.1
300 K, 2105 kPa | 734.06
300 K, 3105.5 kPa | 740.9
300 K, 4106 kPa | 747.61
300 K, 5107 kPa | 754.19
300 K, 6107.6 kPa | 760.65
300 K, 7107.1 kPa | 766.96
300 K, 8107.8 kPa | 773.21
300 K, 9108.4 kPa | 779.34
300 K, 10110 kPa | 785.37
300 K, 12612 kPa | 800.06
300 K, 15114 kPa | 814.23
300 K, 17616 kPa | 827.91
300 K, 20117 kPa | 841.15
300 K, 25121 kPa | 866.44
300 K, 30125 kPa | 890.34
300 K, 35129 kPa | 913.06
300 K, 40132 kPa | 934.74
300 K, 45136 kPa | 955.48
300 K, 50139 kPa | 975.38
300 K, 60146 kPa | 1013.1
300 K, 70153 kPa | 1048.3
300 K, 80160 kPa | 1081.4
300 K, 90167 kPa | 1112.7
300 K, 100174 kPa | 1142.5
319.99 K, 2104.9 kPa | 660.37
319.99 K, 3105.5 kPa | 668.24
319.99 K, 4106.3 kPa | 675.92
319.99 K, 5107.7 kPa | 683.41
319.99 K, 6108.6 kPa | 690.74
319.99 K, 7109.3 kPa | 697.91
319.99 K, 8110 kPa | 704.93
320 K, 9111.2 kPa | 711.77
320 K, 10112 kPa | 718.52
320 K, 12614 kPa | 734.86
320 K, 15115 kPa | 750.5
320 K, 17617 kPa | 765.53
320 K, 20119 kPa | 779.98
320 K, 25123 kPa | 807.44
320 K, 30126 kPa | 833.19
320 K, 35130 kPa | 857.51
320 K, 40134 kPa | 880.59
320 K, 45137 kPa | 902.59
320 K, 50141 kPa | 923.63
320 K, 60148 kPa | 963.25
320 K, 70155 kPa | 1000.1
320 K, 80162 kPa | 1034.6
320 K, 90169 kPa | 1067.1
320 K, 100176 kPa | 1098
320.01 K, 1103.1 kPa | 652.28
340 K, 1105.8 kPa | 578.15
340 K, 2106.4 kPa | 587.65
340 K, 3107 kPa | 596.83
340 K, 4107.5 kPa | 605.73
340 K, 5108.1 kPa | 614.36
340 K, 6109.1 kPa | 622.75
340 K, 7109.7 kPa | 630.92
340 K, 8108.9 kPa | 638.86
340 K, 9109.4 kPa | 646.62
340 K, 10110 kPa | 654.2
340 K, 12611 kPa | 672.43
340 K, 15113 kPa | 689.74
340 K, 17614 kPa | 706.24
340 K, 20116 kPa | 722.03
340 K, 25119 kPa | 751.78
340 K, 30122 kPa | 779.47
340 K, 35124 kPa | 805.42
340 K, 40128 kPa | 829.93
340 K, 45131 kPa | 853.19
340 K, 50135 kPa | 875.34
340 K, 60142 kPa | 916.86
340 K, 70150 kPa | 955.26
340 K, 80157 kPa | 991.12
340 K, 90164 kPa | 1024.8
340 K, 100171 kPa | 1056.7
360 K, 1102.1 kPa | 503.74
360 K, 2102.7 kPa | 515.2
360 K, 3103.3 kPa | 526.14
360 K, 4104 kPa | 536.64
360 K, 5104.8 kPa | 546.73
360 K, 6106.2 kPa | 556.45
360 K, 7106.9 kPa | 565.84
360 K, 8107.7 kPa | 574.94
360 K, 9108.4 kPa | 583.75
360 K, 10109 kPa | 592.32
360 K, 12611 kPa | 612.74
360 K, 15113 kPa | 631.92
360 K, 17615 kPa | 650.07
360 K, 20117 kPa | 667.31
360 K, 25120 kPa | 699.5
360 K, 30124 kPa | 729.19
360 K, 35127 kPa | 756.83
360 K, 40130 kPa | 782.78
360 K, 45134 kPa | 807.28
360 K, 50137 kPa | 830.52
360 K, 60144 kPa | 873.89
360 K, 70151 kPa | 913.8
360 K, 80158 kPa | 950.91
360 K, 90165 kPa | 985.68
360 K, 100172 kPa | 1018.5
379.99 K, 1100.8 kPa | 427.28
379.99 K, 2101.7 kPa | 441.66
379.99 K, 3102.1 kPa | 455.12
379.99 K, 4102.7 kPa | 467.8
379.99 K, 5103.4 kPa | 479.82
379.99 K, 6104.7 kPa | 491.27
379.99 K, 7105.5 kPa | 502.21
379.99 K, 8106.3 kPa | 512.71
379.99 K, 9107.5 kPa | 522.81
379.99 K, 10108 kPa | 532.54
379.99 K, 12610 kPa | 555.5
379.99 K, 15112 kPa | 576.81
379.99 K, 17614 kPa | 596.76
379.99 K, 20116 kPa | 615.56
379.99 K, 25119 kPa | 650.34
379.99 K, 30123 kPa | 682.08
379.99 K, 35126 kPa | 711.42
379.99 K, 40130 kPa | 738.79
379.99 K, 45134 kPa | 764.51
379.99 K, 50137 kPa | 788.83
379.99 K, 60144 kPa | 833.97
379.99 K, 70151 kPa | 875.31
379.99 K, 80158 kPa | 913.6
379.99 K, 90166 kPa | 949.39
379.99 K, 100173 kPa | 983.05
400 K, 1605.2 kPa | 355.52
400 K, 2105.7 kPa | 364.94
400 K, 3106.4 kPa | 382.38
400 K, 4107.2 kPa | 398.31
400 K, 5108.1 kPa | 413.05
400 K, 6107.8 kPa | 426.8
400 K, 7108.6 kPa | 439.76
400 K, 8109.4 kPa | 452.03
400 K, 9110.2 kPa | 463.7
400 K, 10111 kPa | 474.85
400 K, 12613 kPa | 500.78
400 K, 15114 kPa | 524.48
400 K, 17616 kPa | 546.39
400 K, 20118 kPa | 566.86
400 K, 25122 kPa | 604.31
400 K, 30125 kPa | 638.14
400 K, 35128 kPa | 669.16
400 K, 40132 kPa | 697.92
400 K, 45135 kPa | 724.83
400 K, 50138 kPa | 750.16
400 K, 60145 kPa | 796.98
400 K, 70152 kPa | 839.66
400 K, 80159 kPa | 879.05
400 K, 90166 kPa | 915.76
400 K, 100174 kPa | 950.23
419.99 K, 2103.3 kPa | 280.02
419.99 K, 3102.8 kPa | 305.08
419.99 K, 4103.6 kPa | 326.49
419.99 K, 5104.3 kPa | 345.41
419.99 K, 6105 kPa | 362.51
419.99 K, 7105.6 kPa | 378.2
419.99 K, 8106.4 kPa | 392.76
419.99 K, 9107.1 kPa | 406.4
419.99 K, 10108 kPa | 419.26
